Experiment [1] can be described thus: Activity for Alpha-1 adrenergic receptor was assessed from effect on inhibition of neurotransmission in field-stimulated, reserpine-pretreated guinea pig ileum. The experiment is classed as functional, tissue-based.
Experiment [2] in a line: Activity for Alpha-1 adrenergic receptor was assessed from effect on contraction of reserpine-pretreated guinea pig ileum. The format is functional, tissue-based.
Experiment [3] has as its target Beta-2 adrenergic receptor (Cavia porcellus, UniProt Q8K4Z4). The experiment is described as follows: Activity for Beta-2 adrenergic receptor was assessed from effect on relaxation of guinea pig trachea. The experiment is classed as functional.
Experiment [4] is described as follows: Effective dose for on contraction of rabbit aorta. The experiment is classed as functional, tissue-based.
Experiment [5] is described as follows: Effective concentration for inhibition of neurotransmission in field-stimulated, reserpine-pretreated guinea pig ileum. The format is functional, tissue-based.
The nature of experiment [6]: Effective dose for compound on contraction of reserpine-pretreated guinea pig aorta. The format is functional, tissue-based.
Another experiment deals with Nischarin (Homo sapiens, UniProt Q9Y2I1). In words: Binding affinity for imidazoline receptor I-1.
The next experiment deals with T1, Monoamine oxidase (Homo sapiens, UniProt P21397+P27338).
T1 sequence (P21397 whole entry): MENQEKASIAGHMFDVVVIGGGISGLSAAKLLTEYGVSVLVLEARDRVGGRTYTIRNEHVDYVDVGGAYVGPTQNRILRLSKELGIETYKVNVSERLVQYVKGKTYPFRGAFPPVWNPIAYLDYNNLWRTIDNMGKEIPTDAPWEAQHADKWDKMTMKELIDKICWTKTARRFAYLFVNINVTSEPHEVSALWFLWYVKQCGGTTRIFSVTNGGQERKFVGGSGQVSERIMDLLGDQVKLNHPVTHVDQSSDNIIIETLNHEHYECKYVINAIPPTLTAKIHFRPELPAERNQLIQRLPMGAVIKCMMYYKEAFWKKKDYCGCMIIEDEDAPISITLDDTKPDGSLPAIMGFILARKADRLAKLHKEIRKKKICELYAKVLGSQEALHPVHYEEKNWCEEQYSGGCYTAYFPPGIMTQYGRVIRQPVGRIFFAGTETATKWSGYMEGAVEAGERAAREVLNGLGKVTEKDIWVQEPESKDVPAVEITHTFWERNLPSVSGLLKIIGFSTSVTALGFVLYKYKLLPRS
T1 sequence (P27338 whole entry): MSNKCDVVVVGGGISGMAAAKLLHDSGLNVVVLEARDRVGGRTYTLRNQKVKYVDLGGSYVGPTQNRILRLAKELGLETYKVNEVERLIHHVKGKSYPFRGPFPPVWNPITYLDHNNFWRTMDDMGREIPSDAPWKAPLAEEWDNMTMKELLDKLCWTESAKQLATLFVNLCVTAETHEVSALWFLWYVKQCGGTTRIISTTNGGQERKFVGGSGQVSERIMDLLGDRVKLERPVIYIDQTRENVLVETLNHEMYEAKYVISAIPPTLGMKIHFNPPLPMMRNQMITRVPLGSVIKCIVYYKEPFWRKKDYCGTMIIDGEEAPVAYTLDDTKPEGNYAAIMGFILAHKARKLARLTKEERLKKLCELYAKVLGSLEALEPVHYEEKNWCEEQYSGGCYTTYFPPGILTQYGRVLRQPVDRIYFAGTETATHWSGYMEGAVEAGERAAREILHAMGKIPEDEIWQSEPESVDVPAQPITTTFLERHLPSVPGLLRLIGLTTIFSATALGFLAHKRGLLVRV
The experiment is described as follows: Binding affinity for imidazoline receptor I-2. The experiment is classed as protein assay.

Experiment [7] deals with T2, Adrenergic receptor alpha-1 (Rattus norvegicus, UniProt P15823+P23944+P43140).
T2 sequence (P15823 whole entry): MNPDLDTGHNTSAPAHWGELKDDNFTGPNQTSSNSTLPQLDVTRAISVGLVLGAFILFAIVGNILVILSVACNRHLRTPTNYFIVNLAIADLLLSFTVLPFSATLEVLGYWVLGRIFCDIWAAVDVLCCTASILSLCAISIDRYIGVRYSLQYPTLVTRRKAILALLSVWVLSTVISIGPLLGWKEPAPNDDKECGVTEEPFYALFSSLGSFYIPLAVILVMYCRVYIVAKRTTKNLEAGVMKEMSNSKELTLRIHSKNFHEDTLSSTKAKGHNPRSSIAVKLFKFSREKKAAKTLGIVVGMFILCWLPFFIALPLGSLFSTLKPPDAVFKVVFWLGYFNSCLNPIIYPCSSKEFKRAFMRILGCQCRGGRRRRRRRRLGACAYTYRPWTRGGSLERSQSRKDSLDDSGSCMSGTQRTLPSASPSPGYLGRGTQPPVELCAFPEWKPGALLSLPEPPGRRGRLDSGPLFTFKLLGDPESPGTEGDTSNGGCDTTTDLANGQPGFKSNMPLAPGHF
T2 sequence (P23944 whole entry): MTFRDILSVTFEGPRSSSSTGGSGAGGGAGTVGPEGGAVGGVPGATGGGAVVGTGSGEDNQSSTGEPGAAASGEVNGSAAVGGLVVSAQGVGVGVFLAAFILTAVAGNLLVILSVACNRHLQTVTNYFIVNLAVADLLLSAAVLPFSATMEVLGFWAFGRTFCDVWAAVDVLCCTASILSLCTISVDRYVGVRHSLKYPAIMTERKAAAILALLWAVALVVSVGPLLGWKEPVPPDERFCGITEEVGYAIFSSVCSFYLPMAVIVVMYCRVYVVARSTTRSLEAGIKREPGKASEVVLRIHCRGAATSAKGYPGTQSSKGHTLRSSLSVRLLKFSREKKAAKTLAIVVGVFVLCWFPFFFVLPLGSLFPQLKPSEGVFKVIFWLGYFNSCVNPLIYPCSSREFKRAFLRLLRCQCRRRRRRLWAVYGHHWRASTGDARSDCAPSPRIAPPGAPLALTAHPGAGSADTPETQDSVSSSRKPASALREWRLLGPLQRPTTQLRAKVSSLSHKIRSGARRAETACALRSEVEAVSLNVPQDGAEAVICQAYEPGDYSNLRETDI
T2 sequence (P43140 whole entry): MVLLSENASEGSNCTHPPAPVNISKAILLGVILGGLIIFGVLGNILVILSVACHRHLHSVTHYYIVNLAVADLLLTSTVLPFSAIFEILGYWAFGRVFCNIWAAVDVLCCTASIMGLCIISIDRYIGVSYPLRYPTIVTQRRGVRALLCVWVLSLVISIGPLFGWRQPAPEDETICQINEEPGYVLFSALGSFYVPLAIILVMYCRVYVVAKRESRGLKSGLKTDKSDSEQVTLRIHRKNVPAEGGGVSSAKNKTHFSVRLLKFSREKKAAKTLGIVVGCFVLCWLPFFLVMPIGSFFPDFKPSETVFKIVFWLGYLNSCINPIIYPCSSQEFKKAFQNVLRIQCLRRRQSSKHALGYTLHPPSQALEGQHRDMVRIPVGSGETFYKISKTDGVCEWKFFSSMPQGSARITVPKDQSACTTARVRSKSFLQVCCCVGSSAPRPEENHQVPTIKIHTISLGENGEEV
In words: Effective dose for contraction of reserpine-pretreated rat vas deferens. The format is functional.

Experiment [8] can be described thus: Effective dose for inhibition of neurotransmission in field-stimulated, reserpine-pretreated guinea pig ileum. The format is functional, tissue-based.
Experiment [9] can be described thus: Effective dose for contraction of reserpine-pretreated guinea pig aorta. The experiment is classed as functional, tissue-based.
The nature of experiment [10]: Effective dose for contraction of rabbit aorta. The format is functional, tissue-based.

Each structure is given as a SMILES string. Where only a bound is given, the exact number is not on record here.

These results are taken from ChEMBL document CHEMBL1128729, “Alpha- and beta-adrenoceptors: from the gene to the clinic. 2. Structure-activity relationships and therapeutic applications” (J Med Chem, 1995).

Chain of Beta-2 adrenergic receptor (Q8K4Z4 whole entry): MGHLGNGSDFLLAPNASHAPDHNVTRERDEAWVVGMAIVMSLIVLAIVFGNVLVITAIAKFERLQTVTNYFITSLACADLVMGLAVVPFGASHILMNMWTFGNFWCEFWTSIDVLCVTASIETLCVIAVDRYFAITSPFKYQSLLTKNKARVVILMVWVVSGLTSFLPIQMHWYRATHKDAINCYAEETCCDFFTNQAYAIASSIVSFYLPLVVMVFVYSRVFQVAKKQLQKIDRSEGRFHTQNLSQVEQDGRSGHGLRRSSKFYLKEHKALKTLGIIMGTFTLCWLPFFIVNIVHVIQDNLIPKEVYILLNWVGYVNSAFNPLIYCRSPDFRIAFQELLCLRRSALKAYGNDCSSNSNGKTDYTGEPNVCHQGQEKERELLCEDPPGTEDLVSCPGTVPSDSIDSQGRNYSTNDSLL
Chain of Nischarin (Q9Y2I1 whole entry): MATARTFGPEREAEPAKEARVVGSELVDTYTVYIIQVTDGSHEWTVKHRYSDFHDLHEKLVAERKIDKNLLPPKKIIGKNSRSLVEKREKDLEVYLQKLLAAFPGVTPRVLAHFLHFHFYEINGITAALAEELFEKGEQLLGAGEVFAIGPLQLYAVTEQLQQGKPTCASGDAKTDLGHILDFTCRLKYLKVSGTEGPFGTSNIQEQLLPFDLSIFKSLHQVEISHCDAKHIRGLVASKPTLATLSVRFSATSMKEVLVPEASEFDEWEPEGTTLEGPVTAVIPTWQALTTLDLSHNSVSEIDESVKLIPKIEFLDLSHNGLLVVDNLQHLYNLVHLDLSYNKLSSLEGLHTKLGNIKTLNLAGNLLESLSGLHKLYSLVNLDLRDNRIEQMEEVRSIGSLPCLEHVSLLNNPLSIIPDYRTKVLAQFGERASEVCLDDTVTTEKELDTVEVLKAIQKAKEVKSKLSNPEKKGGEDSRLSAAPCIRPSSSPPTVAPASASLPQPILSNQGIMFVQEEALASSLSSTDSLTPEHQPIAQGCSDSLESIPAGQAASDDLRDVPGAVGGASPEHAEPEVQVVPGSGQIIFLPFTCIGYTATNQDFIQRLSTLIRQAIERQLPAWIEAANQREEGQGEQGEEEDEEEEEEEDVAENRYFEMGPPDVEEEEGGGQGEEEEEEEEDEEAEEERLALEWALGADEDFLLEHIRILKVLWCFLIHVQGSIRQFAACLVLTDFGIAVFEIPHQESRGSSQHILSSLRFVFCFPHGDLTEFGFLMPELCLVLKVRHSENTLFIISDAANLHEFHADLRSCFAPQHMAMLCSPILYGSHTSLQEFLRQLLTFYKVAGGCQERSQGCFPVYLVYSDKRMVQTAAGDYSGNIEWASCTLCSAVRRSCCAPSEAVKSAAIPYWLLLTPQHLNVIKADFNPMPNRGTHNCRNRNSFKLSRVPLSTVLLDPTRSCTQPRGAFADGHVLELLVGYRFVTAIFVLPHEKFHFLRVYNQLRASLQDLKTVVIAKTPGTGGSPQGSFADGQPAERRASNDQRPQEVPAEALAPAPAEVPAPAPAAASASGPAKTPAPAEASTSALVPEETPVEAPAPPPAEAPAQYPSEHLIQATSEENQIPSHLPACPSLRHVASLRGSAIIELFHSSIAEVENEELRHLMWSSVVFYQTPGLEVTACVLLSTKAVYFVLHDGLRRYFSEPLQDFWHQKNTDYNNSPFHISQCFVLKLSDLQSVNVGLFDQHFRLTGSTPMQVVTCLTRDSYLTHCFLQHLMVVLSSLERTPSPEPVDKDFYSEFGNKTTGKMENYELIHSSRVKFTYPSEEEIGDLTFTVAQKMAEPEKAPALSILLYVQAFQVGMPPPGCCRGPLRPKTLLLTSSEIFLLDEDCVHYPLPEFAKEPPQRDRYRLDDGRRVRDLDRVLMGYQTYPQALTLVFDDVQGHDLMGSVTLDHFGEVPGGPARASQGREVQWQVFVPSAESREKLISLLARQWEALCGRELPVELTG

Take `C[C@@H](N)[C@@H](O)c1ccc(O)c(O)c1`: the EC50 was 10000 nM in experiment [1] and 46800 nM in experiment [2].

`NCC(O)c1ccc(O)c(O)c1` (single isomer, unassigned) [NOREPINEPHRINE]: the half-maximal effective concentration (EC50) in experiment [3] stood at 30000 nM; in [4], 2000 nM; in experiment [5] it was 14500 nM; in experiment [6] it was 12000 nM.

For the molecule `Clc1cccc(Cl)c1NC1=NCCN1` [CLONIDINE], the figures for the Ki on Nischarin and on Monoamine oxidase were < 10 nM and > 100 nM, respectively.

With `C[C@H](N)[C@H](O)c1ccc(O)c(O)c1` [LEVONORDEFRIN], the EC50 was 19 nM in experiment [5] and 776 nM in experiment [7].

For `NC[C@H](O)c1ccc(O)c(O)c1` [NOREPINEPHRINE], the EC50 was determined as 213 nM in experiment [3], 30 nM in experiment [8], 112 nM in [9] and 6.6 nM in experiment [10].

A word on the EC50: it is the concentration that produces a half-maximal response. As a reminder, the Ki is the equilibrium dissociation constant of an inhibitor or competing ligand from its target.
